{"source": "patent US7652025B2", "about": "(priority 2001, dated 2010)", "key": {"[1]": {"test_system": "Lipopolysaccharide (LPS)-induced lethal sepsis", "set-up": "species or system ICR mice", "settings": "mouse, in vivo"}, "[2]": {"test_system": "experimental sepsis models", "settings": "reported in literature; cited from earlier work"}}, "note": "Structures can show the parent of a compound that is named as a salt."}
{"molecule": "CN(C(=O)/C=C/c1ccoc1)[C@@H]1CC[C@@]2(O)[C@H]3Cc4ccc(O)c5c4[C@@]2(CCN3CC2CC2)[C@H]1O5.Cl", "note": "[Compound 1, (−)-17-(cyclopropylmethyl)-3,14β-dihydroxy-4,5α-epoxy-6 [N-methyl-trans-3-(3-furyl)acrylamide]morphinan hydrochloric acid salt]", "values": [{"measurement": "survival rate after 48 hours", "setting": "[1]", "result": 40, "unit": "%"}, {"measurement": "survival rate at 24 hours after administration of LPS", "setting": "[1]", "result": 80, "unit": "%"}, {"measurement": "survival rate of sepsis model animals (FIG. 1)", "setting": "[1]", "result": "increases the survival rate"}]}
{"molecule": "C=CCN1CC[C@]23c4c5ccc(O)c4O[C@H]2C(=O)CC[C@@]3(O)[C@H]1C5", "note": "[naloxone]", "values": [{"measurement": "fever of experimental sepsis models", "setting": "[2]", "result": "suppresses fever"}]}
{"molecule": "CN1CC[C@]23c4c5ccc(O)c4O[C@H]2[C@@H](O)C=C[C@H]3[C@H]1C5", "note": "[morphine]", "values": [{"measurement": "survival rate of experimental sepsis models", "setting": "[2]", "result": "decrease survival rate"}]}
{"molecule": "CN(C(=O)NCc1cccc(C(F)(F)F)c1)[C@@H]1CC[C@@]2(O)[C@H]3Cc4ccc(O)c5c4[C@@]2(CCN3CC2CC2)[C@H]1O5", "note": "[Compound 3, 17-cyclopropylmethyl-3,14β-dihydroxy-4,5α-epoxy-6β-(N-methyl-N′-3-trifluoromethylbenzylureido)morphinan tartaric acid salt]", "values": [{"measurement": "survival rate at 31 hours after administration of LPS", "setting": "[1]", "result": 70.0, "unit": "%"}]}
{"molecule": "(D)Phe-(D)Phe-(D)Nle-(D)Arg-NH2", "values": [{"measurement": "survival rate at 24 hours after administration of LPS", "setting": "[1]", "result": 66.7, "unit": "%"}]}
